Data from patent EP2067787A1, “Method for controlling insect populations” (Boehringer Ingelheim International GmbH, priority 2007, dated 2009).
Bridge positions count the residues as written; N and C are the ends. Square brackets hold non-standard residues; d marks the D form. Ends that are not written are not given here. Peptide text beside a SMILES is read from it. pGlu = O=C1CC[C@@H](C(=O)O)N1

Tests used:
B. mori SPR = experiment: CHO cell aequorin luminescence assay, insect SPR orthologue; format: cell-based, Bombyx mori; details: CHO cells expressing SPR, aequorin and Gαqi
A. aegypti SPR = experiment: as above; format: cell-based, Aedes aegypti; details: CHO cells expressing SPR, aequorin and Gαqi
D. pseudoobscura SPR = experiment: as above; format: cell-based; details: CHO cells expressing SPR, aequorin and Gαqi
[1] = Saudan et al., 2002; cited from earlier work
CG16752 = biological target: T1, CG16752 (Drosophila melanogaster, UniProt Q8SWR3); experiment: CHO cell aequorin luminescence (Ca2+) assay; format: cell-based; details: for Ca^2+ responses: 0.1µM or 10µM SP
T1 construct: The relevant GPCRs are expressed from constructs prepared by cloning the entire open reading frame in a pcDNA3.1(+) vector; expressed in transfected cells; host or cells: CHO-K1
T1 sequence (Q8SWR3 1-435): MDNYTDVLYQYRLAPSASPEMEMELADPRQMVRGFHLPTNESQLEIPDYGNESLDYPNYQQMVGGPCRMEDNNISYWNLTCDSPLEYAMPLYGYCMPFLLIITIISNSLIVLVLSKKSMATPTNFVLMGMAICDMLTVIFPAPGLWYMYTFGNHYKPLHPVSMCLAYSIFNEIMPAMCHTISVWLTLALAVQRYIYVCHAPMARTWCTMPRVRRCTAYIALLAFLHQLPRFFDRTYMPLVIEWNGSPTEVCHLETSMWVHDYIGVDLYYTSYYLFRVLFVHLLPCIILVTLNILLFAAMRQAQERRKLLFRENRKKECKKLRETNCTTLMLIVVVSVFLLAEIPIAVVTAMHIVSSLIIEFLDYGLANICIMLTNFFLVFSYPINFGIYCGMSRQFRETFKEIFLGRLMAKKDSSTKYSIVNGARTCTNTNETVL

CG2114 = biological target: T2, CG2114 (Drosophila melanogaster, UniProt Q9VZW5); experiment: CHO cell aequorin luminescence assay, related GPCR; format: cell-based; details: 10µM peptide; CHO cells expressing CG2114 and aequorin
T2 construct: The relevant GPCRs are expressed from constructs prepared by cloning the entire open reading frame in a pcDNA3.1(+) vector; expressed in transfected cells; host or cells: CHO-K1
T2 sequence (Q9VZW5 1-549): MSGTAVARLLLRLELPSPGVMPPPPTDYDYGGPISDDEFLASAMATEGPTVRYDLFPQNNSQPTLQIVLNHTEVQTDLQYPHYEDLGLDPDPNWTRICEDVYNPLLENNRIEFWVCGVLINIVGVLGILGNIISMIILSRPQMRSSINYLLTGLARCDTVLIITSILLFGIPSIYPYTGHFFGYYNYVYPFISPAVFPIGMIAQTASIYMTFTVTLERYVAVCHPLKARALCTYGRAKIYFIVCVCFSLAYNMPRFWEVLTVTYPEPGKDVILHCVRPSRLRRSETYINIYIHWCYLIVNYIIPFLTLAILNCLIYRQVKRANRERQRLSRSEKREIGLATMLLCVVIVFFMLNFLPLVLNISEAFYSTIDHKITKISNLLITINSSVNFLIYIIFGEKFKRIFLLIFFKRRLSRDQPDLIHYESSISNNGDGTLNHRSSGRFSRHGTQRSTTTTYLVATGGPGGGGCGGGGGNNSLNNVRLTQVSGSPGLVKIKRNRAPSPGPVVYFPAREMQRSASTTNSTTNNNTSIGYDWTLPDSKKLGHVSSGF

CG8784 = experiment: CHO cell aequorin luminescence assay, related GPCR; format: cell-based, Drosophila; details: 10µM peptide; CHO cells expressing CG8784 and aequorin
virgin females = experiment: Receptivity of virgin females after SP injection; format: in vivo, Drosophila; details: assayed 5 h after injection
Helicoverpa armigera = details: Fan et al., 1999 and 2000; cited from earlier work
SPR of Bombyx mori = biological target: T3, SPR of Bombyx mori (Bombyx mori); experiment: cell-based or functional assay
T3 chain: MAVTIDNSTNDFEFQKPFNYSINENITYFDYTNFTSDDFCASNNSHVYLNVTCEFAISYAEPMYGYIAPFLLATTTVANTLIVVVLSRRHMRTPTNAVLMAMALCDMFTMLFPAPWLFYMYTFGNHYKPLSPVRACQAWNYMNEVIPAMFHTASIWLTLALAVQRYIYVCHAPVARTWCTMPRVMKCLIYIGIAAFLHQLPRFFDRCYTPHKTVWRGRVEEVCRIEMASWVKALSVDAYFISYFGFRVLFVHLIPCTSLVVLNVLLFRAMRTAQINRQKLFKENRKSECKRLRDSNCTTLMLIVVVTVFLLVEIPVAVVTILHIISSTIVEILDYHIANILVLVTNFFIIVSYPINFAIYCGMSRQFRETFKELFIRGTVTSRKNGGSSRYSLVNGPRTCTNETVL

SPR of Aedes aegypti = biological target: T4, SPR of Aedes aegypti (Aedes aegypti); experiment: cell-based or functional assay
T4 chain: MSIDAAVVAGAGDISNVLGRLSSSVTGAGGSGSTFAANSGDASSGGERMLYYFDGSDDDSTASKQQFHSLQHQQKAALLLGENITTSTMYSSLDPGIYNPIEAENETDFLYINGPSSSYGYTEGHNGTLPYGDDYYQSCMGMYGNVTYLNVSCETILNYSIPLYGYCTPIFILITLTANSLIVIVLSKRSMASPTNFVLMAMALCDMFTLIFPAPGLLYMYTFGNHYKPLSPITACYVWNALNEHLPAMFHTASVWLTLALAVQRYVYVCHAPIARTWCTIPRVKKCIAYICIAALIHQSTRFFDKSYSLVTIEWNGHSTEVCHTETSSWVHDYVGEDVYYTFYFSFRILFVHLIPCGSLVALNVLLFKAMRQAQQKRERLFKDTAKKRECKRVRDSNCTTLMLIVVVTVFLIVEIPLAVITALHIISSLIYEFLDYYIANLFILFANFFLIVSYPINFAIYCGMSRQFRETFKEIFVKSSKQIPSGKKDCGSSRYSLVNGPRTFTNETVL

[2] = biological target: T5, SPR of Drosophila pseudoobscura (Drosophila pseudoobscura); experiment: cell-based or functional assay
T5 chain: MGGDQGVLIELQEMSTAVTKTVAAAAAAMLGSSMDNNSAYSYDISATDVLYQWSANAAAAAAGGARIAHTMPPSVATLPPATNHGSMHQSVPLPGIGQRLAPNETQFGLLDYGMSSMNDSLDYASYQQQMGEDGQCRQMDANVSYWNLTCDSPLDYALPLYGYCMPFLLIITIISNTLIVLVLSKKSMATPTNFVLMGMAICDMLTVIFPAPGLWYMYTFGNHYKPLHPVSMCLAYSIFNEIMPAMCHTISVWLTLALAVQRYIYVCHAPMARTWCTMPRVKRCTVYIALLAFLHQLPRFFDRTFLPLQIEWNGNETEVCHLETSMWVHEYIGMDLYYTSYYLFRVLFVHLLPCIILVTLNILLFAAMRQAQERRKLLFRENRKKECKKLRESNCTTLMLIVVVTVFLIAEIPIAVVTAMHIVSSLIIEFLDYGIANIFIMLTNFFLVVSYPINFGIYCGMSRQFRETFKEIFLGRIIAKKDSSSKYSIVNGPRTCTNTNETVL

[3] = biological target: T6, Drosophila melanogaster sex peptide receptor (SPR), GPCR encoded by CG16752 (Drosophila melanogaster, UniProt Q8SWR3 1-435); experiment: cell-based or functional assay
T6 sequence: T1 sequence (Q8SWR3 1-435)

CC[C@H](C)[C@H](NC(=O)[C@H](Cc1c[nH]c2ccccc12)NC(=O)[C@H](CCC(=O)O)NC(=O)[C@@H](NC(=O)[C@H](CC(=O)O)NC(=O)[C@H](CC(N)=O)NC(=O)[C@H](CCCNC(=N)N)NC(=O)[C@H](CC(=O)O)NC(=O)[C@@H]1CCC(=O)N1)[C@@H](C)O)C(=O)N[C@@H](CCC(N)=O)C(=O)N[C@@H](CO)C(=O)N[C@@H](CCC(N)=O)C(=O)N[C@@H](CCCCN)C(=O)N[C@@H](CC(=O)O)C(=O)N[C@@H](CCCNC(=N)N)C(=O)N[C@@H](CCC(=O)O)C(=O)N[C@@H](CCCCN)C(=O)N[C@@H](Cc1c[nH]c2ccccc12)C(=O)N[C@H]1CSSC[C@@H](C(=O)O)NC(=O)[C@H](CCCNC(=N)N)NC(=O)CNC(=O)CNC(=O)[C@H](CC(C)C)NC(=O)[C@H](Cc2ccc(O)cc2)NC(=O)[C@@H]2CCCN2C(=O)CNC(=O)[C@H](CC(C)C)NC(=O)[C@H](CC(N)=O)NC(=O)[C@H](CC(C)C)NC(=O)[C@H](CCCNC(=N)N)NC1=O [DUP99B] ([pGlu]DRNDTEWIQSQKDREKWCRLNLGPYLGGRC-OH; disulfide 19-31)
response of receptor to peptide (B. mori SPR): lower sensitivity | response of receptor to peptide (A. aegypti SPR): lower sensitivity | response of receptor to peptide (D. pseudoobscura SPR): lower sensitivity | post-mating responses [1]: can induce the same post-mating responses as SP

CC[C@H](C)[C@H](NC(=O)[C@@H]1C[C@@H](O)CN1C(=O)[C@H](Cc1ccccc1)NC(=O)[C@H](CCCCN)NC(=O)[C@@H](NC(=O)[C@@H]1C[C@@H](O)CN1C(=O)[C@H](CCCCN)NC(=O)[C@H](CCCNC(=N)N)NC(=O)[C@H](CC(N)=O)NC(=O)[C@H](Cc1c[nH]c2ccccc12)NC(=O)[C@@H]1CCCN1C(=O)[C@H](Cc1c[nH]c2ccccc12)NC(=O)[C@H](CCC(=O)O)NC(=O)[C@@H](N)Cc1c[nH]c2ccccc12)[C@@H](C)O)C(=O)N1C[C@H](O)C[C@H]1C(=O)N[C@@H](CO)C(=O)N1C[C@H](O)C[C@H]1C(=O)N[C@@H](CC(N)=O)C(=O)N1C[C@H](O)C[C@H]1C(=O)N[C@@H](CCCNC(=N)N)C(=O)N[C@@H](CC(=O)O)C(=O)N[C@@H](CCCCN)C(=O)N[C@@H](Cc1c[nH]c2ccccc12)C(=O)N[C@H]1CSSC[C@@H](C(=O)O)NC(=O)[C@H](CCCNC(=N)N)NC(=O)CNC(=O)CNC(=O)[C@H](Cc2c[nH]c3ccccc23)NC(=O)[C@H](C)NC(=O)[C@@H]2CCCN2C(=O)CNC(=O)[C@H](CC(C)C)NC(=O)[C@H](CC(N)=O)NC(=O)[C@H](CC(C)C)NC(=O)[C@H](CCCNC(=N)N)NC1=O [SP]
Ca^2+ responses (CG16752; cotransfected chimeric G protein Gαqi): robust Ca^2+ responses | Ca^2+ responses (CG16752; cotransfected chimeric G protein Gαqo): robust Ca^2+ responses | Ca^2+ responses (CG16752; cotransfected chimeric G protein Gαqs): not Gαqs | luminescence response (CG16752; no additional G protein (endogenous Gαq/11), concentrations as high as 10µM): very weak response | sensitivity to peptide ligand (CG2114): not to SP | EC50 (B. mori SPR): 63 nM | sensitivity to peptide ligand (CG8784): not to SP | EC50 (A. aegypti SPR): 167 nM | receptivity to naive males (virgin females; Df(1)Exel6234 homozygous virgins, 12pmol SP injected): remaine receptive | receptivity to naive males (virgin females; wild-type virgins, 12pmol SP injected into haemolymph): unreceptive | EC50 (D. pseudoobscura SPR): 4.3 nM | post-mating responses (Helicoverpa armigera): can induce post-mating responses

pQLQSNGEPAYRVRTPRLa ([pGlu]LQSNGEPAYRVRTPRL-NH2; SMILES CC(C)C[C@H](NC(=O)[C@H](CCCNC(=N)N)NC(=O)[C@@H]1CCCN1C(=O)[C@@H](NC(=O)[C@H](CCCNC(=N)N)NC(=O)[C@@H](NC(=O)[C@H](CCCNC(=N)N)NC(=O)[C@H](Cc1ccc(O)cc1)NC(=O)[C@H](C)NC(=O)[C@@H]1CCCN1C(=O)[C@H](CCC(=O)O)NC(=O)CNC(=O)[C@H](CC(N)=O)NC(=O)[C@H](CO)NC(=O)[C@H](CCC(N)=O)NC(=O)[C@H](CC(C)C)NC(=O)[C@@H]1CCC(=O)N1)C(C)C)[C@@H](C)O)C(N)=O) [hugin-γ, ligand of CG8784]
activation of receptor by peptide ligand (CG16752; 10µM peptide, co-transfected with Gαqi): Neither of these peptides activates | sensitivity to peptide ligand (CG8784): confer sensitivity

B1: synthetic sex peptide (SP) of Drosophila melanogaster (peptide)
peptide: WEWPWNRKPTKFPIPSPNPRDKWCRLNLGPAWGGRC
modifications: disulfide 24-36 (inferred); also: hydroxyproline at some P residues, places not given here
EC50, dose-response of luminescence in CHO cells expressing the SPR, aequorin and Gαqi (SPR of Bombyx mori): 63 nM | EC50, dose-response of luminescence in CHO cells expressing the SPR, aequorin and Gαqi (SPR of Aedes aegypti): 167 nM | EC50, dose-response of luminescence in CHO cells expressing the SPR, aequorin and Gαqi [2]: 4.3 nM | EC50, dose-response of luminescence in CHO cells expressing CG16752, aequorin and Gαqi [3]: 1.3 nM

[pGlu]DRNDTEWIQSQKDREKWCRLNLGPYLGGRC (disulfide 19-31 (inferred)) [synthetic DUP99B]
EC50, dose-response of luminescence in CHO cells expressing CG16752, aequorin and Gαqi [3]: 7.3 nM
